From article PMC9228089, “1,5-Benzothiazepine Derivatives: Green Synthesis, In Silico and In Vitro Evaluation as Anticancer Agents” (Molecules, 2022)

Columns and labels:
GSK-3β = GSK-3β (Homo sapiens, UniProt P49841); test: GSK-3β inhibitory assay (Kinase-Glo luminescence); conditions: for inhibition at 50 µM: read-out: % of Inhibition at 50 µM, 50 µM, triplicate
Experimental: Briefly, the assay procedure was as follows. […] The activity was determined by the difference between total and consumed ATP. The inhibition activity was determined using the maximal activity in the absence of the inhibitor and the maximal inhibition in the presence of the reference drug. IC50 values were determined using the GraphPad Prism 4.0 tool (GraphPad Software Inc., San Diego, CA, USA).

DU-145 = test: MTT cytotoxicity assay, prostate cancer cell line; format: cell-based, human
Experimental: (§1) HepG-2, and DU-145 human tumor cell lines were grown in DMEM medium supplemented with Glutamax-I and glucose. A pseudo-normal human embryonic liver cell line (L02) was used to study the cytotoxicity of the synthesized compounds. The cell culture medium was supplemented with fetal calf serum (10% v/v), penicillin (100 IU/mL), and streptomycin (100 µg/mL), then preserved at 37 °C.
(§2) A spectrophotometric MTT reagent assay was employed to assess the cytotoxic activity of the synthesized compounds. In brief, the grown cells (approx. 5 × 10^3 count) were placed in each well of a 96-well plate and 100 µL of the culture medium was added along with the synthesized compounds (1–100 µmol/L). The well plate was subjected to incubation for 72 h; later, 10 µL of MTT (5 mg/mL) was added to each well. The well plate was further incubated for 4 h at 37 °C. The resulting insoluble formazan was dissolved by adding sodium dodecyl sulfate (100 µL, 10%) to each well and continuing incubation for an additional 12 h. Later, the 96-well plate was used to measure the absorbance at the 540 nm and 630 nm reference wavelengths using the spectrophotometer. The blank absorbance was treated as a control and the IC50 values were determined by a non-linear regression model with the help of normalized dose-response data acquired via MTT assay.

Hep G-2 = test: MTT cytotoxicity assay, liver cancer cell line; format: cell-based, human
Experimental: as §1, §2

L02 = test: MTT cytotoxicity assay, embryonic liver cell line (selective toxicity); format: cell-based; conditions: for inhibition at 100 µM: L02, human embryonic liver cell line
Experimental: as §1, §2

Sequence of GSK-3β (P49841 whole entry): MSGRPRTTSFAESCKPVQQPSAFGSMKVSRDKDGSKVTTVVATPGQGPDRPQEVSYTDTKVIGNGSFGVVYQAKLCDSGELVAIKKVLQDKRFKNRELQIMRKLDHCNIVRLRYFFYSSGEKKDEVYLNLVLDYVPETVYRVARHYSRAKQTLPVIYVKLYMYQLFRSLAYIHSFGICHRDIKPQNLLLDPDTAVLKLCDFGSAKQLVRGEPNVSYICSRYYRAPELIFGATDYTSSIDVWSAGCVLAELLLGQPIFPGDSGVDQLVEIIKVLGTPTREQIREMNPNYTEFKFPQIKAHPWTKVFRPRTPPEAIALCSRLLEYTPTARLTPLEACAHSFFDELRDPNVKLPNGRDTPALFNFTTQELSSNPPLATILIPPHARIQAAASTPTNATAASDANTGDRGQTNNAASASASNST

inhibition at 50 µM (GSK-3β) [%]	melting point [°C]	Structure (SMILES)	IC50 (DU-145; Homo sapiens, DU-145, 72 h) [µM]	IC50 (Hep G-2; Homo sapiens, HepG2, 72 h) [µM]	inhibition at 100 µM (L02) [%]	% of Inhibition at 50 µM (GSK-3β) [%]	IC50 (DU-145; 72 h) [µM]	IC50 (Hep G-2; 72 h) [µM]	% Inhibition (100 µM) L02 (L02; human embryonic liver cell line) [%]
61.9 ± 3.47	244 to 246	Cc1ccc2c(c1)N=C(c1cc(Br)cc(I)c1O)CC(c1ccc(N(C)C)cc1)S2 (stereo not drawn) [2h, 4-bromo-2-(2-(4-(dimethylamino)phenyl)-7-methyl-2,3-dihydrobenzo[b][1,4]thiazepin-4-yl)-6-iodophenol]	36.8 ± 0.18	8.56 ± 0.14	46.1 ± 1.05				
61.1 ± 1.98	244 to 246	Cc1ccc2c(c1)N=C(c1cc(Cl)cc(I)c1O)CC(c1ccc(N(C)C)cc1)S2 (stereo not drawn) [2d, 4-chloro-2-(2-(4-(dimethylamino)phenyl)-7-methyl-2,3-dihydrobenzo[b][1,4]thiazepine-4-yl)-6-iodophenol]	36.17 ± 0.14	7.89 ± 0.22	31.4 ± 1.14				
60.7 ± 2.85	218 to 220	Cc1ccc2c(c1)N=C(c1cc(C)cc(I)c1O)CC(c1ccc(N(C)C)cc1)S2 (stereo not drawn) [2b, 2-(2-(4-(dimethylamino)phenyl)-7-methyl-2,3-dihydrobenzo[b][1,4]thiazepin-4-yl)-6-iodo-4-methylphenol]	41.34 ± 0.12	8.26 ± 0.26	19.6 ± 0.97				
62.4 ± 2.21	230 to 232	Cc1ccc2c(c1)N=C(c1cc(I)cc(I)c1O)CC(c1ccc(N(C)C)cc1)S2 (stereo not drawn) [2a, 2-(2-(4-(dimethylamino)phenyl)-7-methyl-2,3-dihydrobenzo[b][1,4]thiazepin-4-yl)-4,6-diiodophenol]	32.74 ± 0.13	7.52 ± 0.13	28.2 ± 1.68				
66.6 ± 2.51	244 to 246	Cc1ccc2c(c1)N=C(c1cc(C)cc(Br)c1O)CC(c1ccc(N(C)C)cc1)S2 (stereo not drawn) [2e, 2-bromo-6-(2-(4-(dimethylamino)phenyl)-7-methyl-2,3-dihydrobenzo[b][1,4]thiazepine-4-yl)-4-methylphenol]	37.52 ± 0.27	6.87 ± 0.15	52.2 ± 1.42				

The next lines start with the compound.

Structure (SMILES)	inhibition at 50 µM (GSK-3β) [%]	melting point [°C]	IC50 (DU-145; Homo sapiens, DU-145, 72 h) [µM]	IC50 (Hep G-2; Homo sapiens, HepG2, 72 h) [µM]	inhibition at 100 µM (L02) [%]	% of Inhibition at 50 µM (GSK-3β) [%]	IC50 (DU-145; 72 h) [µM]	IC50 (Hep G-2; 72 h) [µM]	% Inhibition (100 µM) L02 (L02; human embryonic liver cell line) [%]
Cc1ccc2c(c1)N=C(c1cc(Cl)cc(Br)c1O)CC(c1ccc(N(C)C)cc1)S2 (stereo not drawn) [2f, 2-bromo-4-chloro-6-(2-(4-(dimethylamino)phenyl)-7-methyl-2,3-dihydrobenzo [b][1,4]thiazepin-4-yl)phenol]	89.7 ± 1.65	244 to 246	24.58 ± 0.13	4.38 ± 0.11	28.4 ± 1.18				
Cc1ccc2c(c1)N=C(c1cc(Br)cc(Br)c1O)CC(c1ccc(N(C)C)cc1)S2 (stereo not drawn) [2g, 2,4-dibromo-6-(2-(4-(dimethylamino)phenyl)-7-methyl-2,3-dihydrobenzo[b][1,4]hiazepine-4-yl)phenol]						87.62 ± 2.54	28.53 ± 0.14	8.32 ± 0.16	15.56 ± 1.29
CN(Cc1cnc2nc(N)nc(N)c2n1)c1ccc(C(=O)N[C@@H](CCC(=O)O)C(=O)O)cc1 [Methotrexate, reference compound]			21.96 ± 0.15	4.68 ± 0.17	78.2 ± 1.86				
Cc1ccc2c(c1)N=C(c1cc(Cl)cc(Cl)c1O)CC(c1ccc(N(C)C)cc1)S2 (stereo not drawn) [2c, 2,4-dichloro-6-(2-(4-(dimethylamino)phenyl)-7-methyl-2,3-dihydrobenzo[b][1,4]thiazepin-4-yl)phenol]	> 90	222 to 224	20.45 ± 0.19	3.29 ± 0.15	19.3 ± 1.25				
